The values that follow come from patent US10550165B2, “Peptide for inducing regeneration of tissue and use thereof” (STEMRIM INC., priority 2011, dated 2020).

Series [1] deals with mouse bone marrow mesenchymal stem cell line (MSC-1 cells), PDGFRα-positive. The series is described as follows: Migration assay (Boyden / 48-well chemotaxis chamber) on bone marrow mesenchymal stem cell line MSC-1. It is filed as cell-based. Put shortly:
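Mouse MSC-1 cells (3×10^6 cells/ml in D-MEM with 10% FBS) loaded in the upper wells of a 48-well Boyden chamber with 8 μm polycarbonate membrane; mouse HMGB1 peptides or HEK293-made HMGB1 in lower wells at 100 μg/ml, 5 μM or 10 μM; PBS as negative control. After 4 h at 37° C, migrated cells were Diff-Quik stained.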

Series [2] has as its system CD11b-negative, PDGFRα-positive cells (primary cultured bone marrow mesenchymal cells). The experiment in a line: Migration assay on primary cultured CD11b-negative, PDGFRα-positive bone marrow cells. It is filed as cell-based, mouse. As to conditions: peptide produced in HEK293, 40 μg/ml, FIG. 5. On the procedure:
Thigh and tibial bones were excised from donor mice: B6.129S4-Pdgfratm11(EGFP)Sor/J (PDGFRα-GFP Mouse). After removing attached muscles and other tissues, the bones were crushed finely and incubated with 0.2% collagenase (Roche, REF: 10103586001)/DMEM/2% FBS(filtrated) at 37° C. for 40 minutes. Then, cell aggregates and muscle tissues were removed by filtration through a 40-μm nylon mesh. After centrifugation at 1200 rpm for 10 minutes, the resulting cells were suspended in αMEM containing 10% FBS and 1% P/S and cultured in an incubator under 5% CO2 at 37° C. until they reached 100% confluence. The cells were harvested and the following experiment was carried out according to the protocol attached to CD11b MicroBeads (Miltenyi Biotec; order No: 130-049-601). The cells were adjusted to 10^7 cells/90 μl with PBS(−), and CD11b MicroBeads were added at 10 μl/10^7 cells. After 15 minutes of reaction at 4° C., the cells were washed twice and suspended in 500 μl of PBS(−). The tube was placed in AutoMACS separator and the cells were collected according to the separation program “Depletes”. The collected cells were plated onto an adherent cell culture dish. After adhesion, GFP fluorescence was observed using a fluorescence microscope. The above-described peptide 1-44 produced in HEK293 was tested for the migration-promoting activity using CD11b-negative cells. […]

The nature of series [3]: Side effects after administration of recombinant HMGB1 (previous studies of the inventors). The following applies: high concentration administered to mice or rats. Format: in vivo. An excerpt: As described above, HMGB1 pharmaceuticals are revolutionary therapeutic agents that promote the recruitment of bone marrow mesenchymal stem cells into blood and accumulation of the cells to damaged tissues, thereby inducing tissue regeneration in the body. […] However, there are also reports that HMGB1 has an inflammatory effect. As described above, there are several findings on HMGB1; however, nothing is known about the effect of fragments of the HMGB1 protein on mesenchymal stem cells or what roles they play in tissue regeneration.

For series [4], the system named is skin flap made on the back of a rat. The series is described as follows: Skin flap (skin damage) model on the back of rats. It is filed as in vivo. The following applies: six weeks after skin flap production; 50 μg/administration/day, five administrations, FIG. 26.
Series [5] has the same test system. The series is described as follows: Skin flap (skin damage) model on the back of rats. Format: in vivo. How it is done: Experimental animals used were SD rats (male, eight weeks old). After sufficiently deep anesthesia by isoflurane inhalation, a rectangular skin incision of 3 cm width×7 cm length was made on the back. The cephalic side was left uncut, and the skin was thoroughly detached from the subcutaneous tissues. The three incised sides were sutured to the surrounding skin using #4 silk suture, and protected with Tegaderm (3M) to prevent bacterial infection.
The full-length mouse HMGB1 (100 μg/administration/day) produced in HEK293 and chemically synthesized HMGB1 peptide (amino acids 1 to 44; 50 μg/administration/day) were diluted to 200 μl with phosphate buffer and administered to rats via the caudal vein. The first administration was performed 6 hours after the surgery, and then the agents were administered every 24 hours a total of five times. Phosphate-buffered physiological saline was administered as a negative control. Tegaderm was removed after one week, and the wound region was observed weekly to measure the areas of necrosis and ulceration.
Experimental animals used were 15 SD rats (male, eight weeks old) per group. After sufficient anesthesia by isoflurane inhalation, a rectangular skin incision of 3 cm width×7 cm length was made on the back. The cephalic side was left uncut, and the skin was thoroughly detached from the subcutaneous tissues. The incised three sides were sutured to the surrounding skin using #4 silk suture, and protected with Tegaderm (3M) to prevent bacterial infection.
Chemically synthesized HMGB1 peptide (amino acids 1-44; 50 μg/administration/day) or HMGB1 peptide (amino acids 17-25; 50 μg/administration/day) was diluted to 200 μl with phosphate buffer and administered to the rats with experimental wound. The first administration was performed 6 hours after the surgery, and then the agents were administered every 24 hours a total of five times. Phosphate-buffered physiological saline was administered as a negative control. Tegaderm was removed after one week, and the wound was observed two weeks after the wound production. Uncured areas (ulceration and necrosis) were measured.

For series [6] the following is noted: Youn et al., J Immunol 2008; cited from earlier work.
For another series, the system named is mouse skin fibroblasts. The experiment in a line: Migration assay on mouse skin fibroblasts. The following applies: synthetic peptide, PDGFRα-positive cells, FIG. 13A. It is filed as cell-based. How it is done:
Newborn C57/B16 mice were euthanized using isoflurane and carbon dioxide inhalation. Then, the mice were washed thoroughly with EtOH and PBS. The skin together with dermis was exfoliated and the blood was washed off with PBS. The exfoliated skin was cut into fine pieces with scissors. The skin pieces were placed in DMEM (Nacalai tesque, Cat: 08458-45) containing 0.2% collagenase (Roche, REF: 10103586001) and shaken at 37° C. for 30 minutes. The reaction was stopped with DMEM/30% FBS/P/S. The resulting cells were centrifuged at 160×G for 5 minutes and plated in a 10-cm dish. The cells were cultured under 5% CO2 at 37° C. and the medium was changed every three days. The cells were passaged when they reached 80% to 90% confluency. The cells were harvested from the dish using trypsin. After inactivation of trypsin with D-MEM containing 10% FBS, a synthetic peptide consisting of the amino acid sequence of positions 1 to 34 (1-34) was assessed for migration-promoting activity according to the migration assay method described above.

A further series has as its system mouse keratinocytes. The experiment in a line: Migration assay on mouse keratinocytes. Format: cell-based. As to conditions: synthetic peptide, PDGFRα-negative cells, FIG. 12A. On the procedure: Newborn C57/B16 mice were euthanized using isoflurane and carbon dioxide inhalation. Then, the mice were washed thoroughly with EtOH and PBS. The skin together with dermis was exfoliated and the blood was washed off with PBS. The exfoliated skin was placed in Dispase I (Sanko Junyaku Co., Cat: GD81060) at 4° C. for 16 hours. The epidermis and dermis were detached with forceps, and the epidermis was placed in trypsin (Nacalai tesque, Cat: 3554-64) at 37° C. for 10 minutes. When white turbidity began to appear, the reaction was stopped with S-MEM (GIBCO, Cat: 11380)/15% FBS(Ca-)P/S. The resulting cells were centrifuged at 160×G for 5 minutes, and suspended in CnT-07 medium (CELLnTEC, Cat: CnT-07 BM) and plated in a 10-cm dish. The cells were cultured under 5% CO2 at 37° C. and the medium was changed every three days. The cells were passaged when they reached 80% to 90% confluency. The cells were harvested from the dish using trypsin. After inactivation of trypsin with DMEM containing 10% FBS, a synthetic peptide consisting of the amino acid sequence of positions 1 to 34 (1-34) was examined for migration-promoting activity according to the migration assay method described above.

Setting [7] is: 2 μM, area of migrated cells by image analysis, FIG. 10.
Setting [8] is: protein and peptides produced using HEK293 (mouse HMGB1), 50 μg/ml, 4 h, FIG. 2A.

Regarding “1-44: peptide of positions 1 to 44 of mouse HMGB1, produced using HEK293 (MGKGDPKKPRGKMSSYAFFVQTCREEHKKKHPDASVNFSEFSKK; UniProt P63158 1-44, looked up, fragment)”, in series [1] (setting [7]), the “migration-promoting activity relative to the full-length HMGB1, compared per equal mass” value is on record as “about 8 times” and the “migration-promoting activity relative to the full-length HMGB1, compared per equal mole” value was “about 1.6 times”. For the same molecule, the migration-promoting activity entry in series [1] (setting [8]) is reported as “showed migration-promoting activity”. For the same molecule, the migration-promoting activity result in series [2] is “strong migration-promoting activity”.

Consider “recombinant HMGB1 protein: recombinant HMGB1 protein administered to mice or rats in the inventors' previous studies”, for which, in series [3], the side effects result is reported as “no side effects were observed”.

With “(17-25): synthetic peptide consisting of the amino acid sequence from positions 17 to 25 of HMGB1 (AFFVQTCRE; UniProt P09429 17-25, looked up, fragment)”, the “ratio of the uncured area relative to the area of the whole skin flap, average” value in series [4] turned out to be 3.5%; in series [5] (two weeks after skin flap production, 50 μg/administration/day, five administrations, 15 SD rats per group, FIG. 26), 9.1%. Moreover, the migration-promoting activity entry in series [1] (synthetic peptides, 5 μM, FIGS. 8A and 8B) is recorded as “weak activity”.

As for “1-215: whole mouse HMGB1 produced in HEK293, positive control [reference compound]”, the migration-promoting activity entry in series [1] (setting [8]) is “showed migration-promoting activity”. In addition, the “area of wound section (necrosed section) in the skin flap” value in series [5] (one to three weeks after the skin flap was made, versus negative control, FIG. 25) was “effect of shrinking the wound section was confirmed”. In addition, in series [5] (one week after surgery, caudal vein, five administrations, full-length 100 μg, peptide 50 μg/administration/day, negative control four of five), the “rats in which skin necrosis developed” value is given as “three of five rats”. For the same molecule, the “rats with severe skin contracture” value in series [5] (seven weeks after surgery, same regimen, negative control four of five, FIG. 24) is on record as “three of five rats”. Besides, the LPS-binding activity result in series [6] was “known to have the binding activity with lipopolysaccharide (LPS)”.

As for “(1-34): synthetic peptide consisting of the amino acid sequence from positions 1 to 34 of HMGB1 (MGKGDPKKPRGKMSSYAFFVQTCREEHKKKHPDA; UniProt P09429 1-34, looked up, fragment)”, the “migration-promoting activity on skin fibroblasts” value in the series with mouse skin fibroblasts is “exhibited migration-promoting activity”. Also, the “migration-promoting activity on mouse keratinocytes” value with mouse keratinocytes is listed as “did not show migration-promoting activity”. The migration-promoting activity result in series [1] (synthetic peptides, 100 μg/ml, positive control 1-215(HEK), FIG. 7) was “activity comparable to or higher than that of the positive control”.

B1: amino acids 1 to 79: HMGB1 fragment of amino acids 1 to 79 (Youn et al.) (protein, UniProt P09429 1-79, looked up, fragment)
chain: MGKGDPKKPRGKMSSYAFFVQTCREEHKKKHPDASVNFSEFSKKCSERWKTMSAKEKGKFEDMAKADKARYEREMKTYI
Turning to B1, the LPS-binding activity result in series [6] is on record as “lack the LPS-binding activity”.

B2: amino acids 88 to 162: HMGB1 fragment of amino acids 88 to 162 (Youn et al.) (protein, UniProt P09429 88-162, looked up, fragment)
chain: KFKDPNAPKRPPSAFFLFCSEYRPKIKGEHPGLSIGDVAKKLGEMWNNTAADDKQPYEKKAAKLKEKYEKDIAAY
For B2, the LPS-binding activity entry in series [6] is on record as “lack the LPS-binding activity”.
